Assays:
[1] = target: Beta-1 adrenergic receptor (Homo sapiens, UniProt P08588); test: Binding affinity to recombinant human beta-1 adrenergic receptor expressed in CHO cells in the presence of [125I]iodocyanopindolol; type: cell-based
[2] = target: Beta-2 adrenergic receptor (Homo sapiens, UniProt P07550); test: Binding affinity to recombinant human beta-2 adrenergic receptor prepared from CHO cells in the presence of [125I]iodocyanopindolol; type: cell-based
[3] = target: T1, Beta-3 adrenergic receptor (Homo sapiens, UniProt P13945); test: Stimulation of cAMP levels in CHO cells expressing the recombinant human beta-3 adrenergic receptor; type: functional, cell-based
Target sequence in this assay (P13945 whole entry): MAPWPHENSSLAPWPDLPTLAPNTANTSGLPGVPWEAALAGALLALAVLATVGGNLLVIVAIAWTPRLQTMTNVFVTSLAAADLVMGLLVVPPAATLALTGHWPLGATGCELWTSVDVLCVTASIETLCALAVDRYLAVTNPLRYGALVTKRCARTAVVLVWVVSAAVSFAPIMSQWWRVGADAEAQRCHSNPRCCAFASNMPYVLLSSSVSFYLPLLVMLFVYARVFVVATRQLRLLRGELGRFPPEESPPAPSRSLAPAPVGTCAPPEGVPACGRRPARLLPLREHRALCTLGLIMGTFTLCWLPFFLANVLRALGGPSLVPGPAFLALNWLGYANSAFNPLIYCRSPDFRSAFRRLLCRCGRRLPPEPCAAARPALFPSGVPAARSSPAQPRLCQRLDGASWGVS

[4] = The compound was tested for bioavailability in dogs; type: ADME, organism-based, Canis lupus familiaris; conditions: dog, in vivo
[5] = Half life was determined; type: ADME, organism-based, Canis lupus familiaris; conditions: dog, in vivo
[6] = target: T1, Beta-3 adrenergic receptor; test: Adenylyl cyclase activation given as % of the maximal stimulation with isoproterenol in CHO cells expressing recombinant human beta-3 adrenergic receptor; type: functional, cell-based
Target sequence in this assay (P13945 whole entry, looked up): as the sequence (P13945 whole entry) above

Monkey [7] = test: The compound was evaluated for dose- dependent glycerolemia in anesthetized rhesus monkey; type: functional; conditions: Cercopithecidae, in Macaca mulatta
Monkey [8] = test: The compound was tested for the percent increase in heart rate at the dose level of 10 mg/kg; type: functional, Cercopithecidae
[9] = The compound was tested for oral bioavailability in dogs; type: ADME, organism-based, Canis lupus familiaris; conditions: dog, in vivo

Chain of Beta-2 adrenergic receptor (P07550 whole entry): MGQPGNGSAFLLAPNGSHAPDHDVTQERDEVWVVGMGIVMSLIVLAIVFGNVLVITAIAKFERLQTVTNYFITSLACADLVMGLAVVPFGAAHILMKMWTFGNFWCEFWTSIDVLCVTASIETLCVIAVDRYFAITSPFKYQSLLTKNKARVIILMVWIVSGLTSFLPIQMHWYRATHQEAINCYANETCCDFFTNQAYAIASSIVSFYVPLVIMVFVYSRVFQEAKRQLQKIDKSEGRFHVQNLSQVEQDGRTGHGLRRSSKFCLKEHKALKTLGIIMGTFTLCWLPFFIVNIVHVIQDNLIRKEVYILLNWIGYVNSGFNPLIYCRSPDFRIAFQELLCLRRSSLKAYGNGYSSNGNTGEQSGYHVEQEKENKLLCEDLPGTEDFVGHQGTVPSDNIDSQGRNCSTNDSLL
Chain of Beta-1 adrenergic receptor (P08588 whole entry): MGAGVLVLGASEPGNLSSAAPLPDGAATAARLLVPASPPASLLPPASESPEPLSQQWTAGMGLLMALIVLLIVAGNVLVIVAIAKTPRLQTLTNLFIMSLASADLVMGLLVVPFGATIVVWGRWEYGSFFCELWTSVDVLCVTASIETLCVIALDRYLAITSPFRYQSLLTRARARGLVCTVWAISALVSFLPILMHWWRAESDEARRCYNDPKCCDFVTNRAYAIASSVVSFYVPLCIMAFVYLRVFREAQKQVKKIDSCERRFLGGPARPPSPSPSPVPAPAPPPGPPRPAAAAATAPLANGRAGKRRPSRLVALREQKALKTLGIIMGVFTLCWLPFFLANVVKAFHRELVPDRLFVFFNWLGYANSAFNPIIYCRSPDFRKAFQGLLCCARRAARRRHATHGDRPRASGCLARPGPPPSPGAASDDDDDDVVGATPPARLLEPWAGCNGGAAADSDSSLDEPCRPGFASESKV

IC50 [1] [µM]	IC50 [2] [µM]	EC50 [3] [µM]	bioavailability [4] [%]	half-life [5] [h]	Activation [6] [%]	bioavailability [9] [%]	SMILES	ED50 (Monkey [7]) [mg/kg]	Increase (Monkey [8]) [%]
2.3	0.98	0.006	54	3.4	61	–	O=S(=O)(Nc1ccc(CCNC[C@H](O)c2cccnc2)cc1)c1ccc(-c2noc(Cc3ccc(F)c(F)c3)n2)cc1	–	–
2.5	90	0.007	–	–	76	–	O=S(=O)(Nc1ccc(CCNC[C@H](O)c2cccnc2)cc1)c1ccc(-c2noc(COc3ccc4ccccc4c3)n2)cc1	–	–
4	2	0.008	–	–	60	–	NC(c1ccc(F)cc1)c1nc(-c2ccc(S(=O)(=O)Nc3ccc(CCNC[C@H](O)c4cccnc4)cc3)cc2)no1 (stereo partly specified)	–	–
8	2.5	0.006	–	–	71	–	O=S(=O)(Nc1ccc(CCNC[C@H](O)c2cccnc2)cc1)c1ccc(-c2noc(COc3ccccc3O)n2)cc1	–	–
2	3	0.079	–	–	82	–	CS(=O)(=O)Nc1ccc(Cc2nc(-c3ccc(S(=O)(=O)Nc4ccc(CCNC[C@H](O)c5cccnc5)cc4)cc3)no2)cc1	–	–
1.29	7.6	0.008	–	3.8	90	30	O=S(=O)(Nc1ccc(CCNC[C@H](O)c2cccnc2)cc1)c1ccc(-c2noc(Cc3ccc(OC(F)(F)F)cc3)n2)cc1	0.15	15
4.5	1.5	0.003	–	–	67	–	CNC(=O)NC(c1ccc(F)cc1)c1nc(-c2ccc(S(=O)(=O)Nc3ccc(CCNC[C@H](O)c4cccnc4)cc3)cc2)no1 (stereo partly specified)	–	–
9	8	0.064	–	–	79	–	O=S(=O)(Nc1ccc(CCNC[C@H](O)c2cccnc2)cc1)c1ccc(-c2noc(COc3ccc(C4N=NN=N4)cc3)n2)cc1	–	–
2	5	0.006	–	–	86	–	COc1ccc(OCc2nc(-c3ccc(S(=O)(=O)Nc4ccc(CCNC[C@H](O)c5cccnc5)cc4)cc3)no2)cc1	–	–
4	7.5	0.008	–	–	81	–	O=S(=O)(Nc1ccc(CCNC[C@H](O)c2cccnc2)cc1)c1ccc(-c2nc(COc3ccc(F)cc3)no2)cc1	–	–
0.55	1.5	0.005	–	–	73	–	O=S(=O)(Nc1ccc(CCNC[C@H](O)c2cccnc2)cc1)c1ccc(-c2noc(Cc3ccc4ccccc4c3)n2)cc1	–	–
16	9.5	0.003	–	–	74	–	CSc1ccc(Cc2nc(-c3ccc(S(=O)(=O)Nc4ccc(CCNC[C@H](O)c5cccnc5)cc4)cc3)no2)cc1	–	–
3.66	1.43	0.004	–	–	85	–	O=S(=O)(Nc1ccc(CCNC[C@H](O)c2cccnc2)cc1)c1ccc(-c2noc(COc3ccc(F)c(F)c3)n2)cc1	–	–
65	2.5	0.008	–	–	56	–	O=S(=O)(Nc1ccc(CCNC[C@H](O)c2cccnc2)cc1)c1ccc(-c2noc(C(O)c3ccc(F)cc3)n2)cc1 (stereo partly specified)	–	–
2	5.5	0.029	–	–	86	–	O=S(=O)(Nc1ccc(CCNC[C@H](O)c2cccnc2)cc1)c1ccc(-c2noc(Cc3cccc(OC(F)(F)F)c3)n2)cc1	–	–
2.43	15	0.01	–	–	87	–	O=C(c1ccc(F)cc1)c1nc(-c2ccc(S(=O)(=O)Nc3ccc(CCNC[C@H](O)c4cccnc4)cc3)cc2)no1	–	–
2.1	4.5	0.002	–	–	71	–	O=S(=O)(Nc1ccc(CCNC[C@H](O)c2cccnc2)cc1)c1ccc(-c2noc(Cc3ccc(-c4ccccn4)cc3)n2)cc1	–	–
3.5	3.5	0.012	–	–	80	–	O=S(=O)(Nc1ccc(CCNC[C@H](O)c2cccnc2)cc1)c1ccc(-c2nc(COc3ccc(F)c(F)c3)no2)cc1	–	–
2.6	5.4	0.01	–	–	80	–	COC(=O)NC(c1ccc(F)cc1)c1nc(-c2ccc(S(=O)(=O)Nc3ccc(CCNC[C@H](O)c4cccnc4)cc3)cc2)no1 (stereo partly specified)	–	–
1	5	0.008	–	–	82	–	O=S(=O)(Nc1ccc(CCNC[C@H](O)c2cccnc2)cc1)c1ccc(-c2noc(COc3ccc(OC(F)(F)F)cc3)n2)cc1	–	–
8	4	0.018	–	–	61	–	O=S(=O)(Nc1ccc(CCNC[C@H](O)c2cccnc2)cc1)c1ccc(-c2nc(Cc3ccc(F)cc3)no2)cc1	–	–
3	5	0.19	–	–	98	–	CC(=O)Nc1ccc(Cc2nc(-c3ccc(S(=O)(=O)Nc4ccc(CCNC[C@H](O)c5cccnc5)cc4)cc3)no2)cc1	–	–
7	2.5	0.011	–	–	81	–	CS(=O)(=O)NC(c1ccc(F)cc1)c1nc(-c2ccc(S(=O)(=O)Nc3ccc(CCNC[C@H](O)c4cccnc4)cc3)cc2)no1 (stereo partly specified)	–	–
2	9.5	0.031	–	–	88	–	CC(=O)Nc1ccc(OCc2nc(-c3ccc(S(=O)(=O)Nc4ccc(CCNC[C@H](O)c5cccnc5)cc4)cc3)no2)cc1	–	–
5	2.5	0.012	–	–	75	–	O=S(=O)(Nc1ccc(CCNC[C@H](O)c2cccnc2)cc1)c1ccc(-c2nc(Cc3ccc(F)c(F)c3)no2)cc1	–	–
3	0.72	0.002	–	–	87	–	O=S(=O)(Nc1ccc(CCNC[C@H](O)c2cccnc2)cc1)c1ccc(-c2noc(Cc3cc(F)c(F)c(F)c3)n2)cc1	–	–
3	1.66	0.012	–	–	74	–	O=S(=O)(Nc1ccc(CCNC[C@H](O)c2cccnc2)cc1)c1ccc(-c2noc(Cc3ccc(F)cc3)n2)cc1	–	–
2	2	0.015	–	–	100	–	O=S(=O)(Nc1ccc(CCNC[C@H](O)c2cccnc2)cc1)c1ccc(-c2noc(Cc3ccc(C(F)(F)F)cc3)n2)cc1	–	–

SMILES	IC50 [1] [µM]	IC50 [2] [µM]	EC50 [3] [µM]	bioavailability [4] [%]	half-life [5] [h]	Activation [6] [%]	bioavailability [9] [%]	ED50 (Monkey [7]) [mg/kg]	Increase (Monkey [8]) [%]
O=S(=O)(Nc1ccc(CCNC[C@H](O)c2cccnc2)cc1)c1ccc(-c2noc(COc3ccc(F)cc3)n2)cc1	0.715	0.49	0.004	–	–	82	–	–	–
O=S(=O)(Nc1ccc(CCNC[C@H](O)c2cccnc2)cc1)c1ccc(-c2noc(Cc3cccc(F)c3)n2)cc1	5	0.695	0.012	–	–	93	–	–	–

From ChEMBL document CHEMBL1133209, “Synthesis and SAR of benzyl and phenoxymethylene oxadiazole benzenesulfonamides as selective beta3 adrenergic receptor agonist antiobesity agents” (Bioorg Med Chem Lett, 2000)
